Reference: article PMC10994559 (PLOS Neglected Tropical Diseases, 2024)
Like-named read-outs stand apart in the source and are kept apart here.

Experiments:
E. histolytica = E. histolytica viability, ATP luminescence (Cell titer glo); type: cell-based, Entamoeba histolytica; details: Entamoeba histolytica, 48 h; for viability at 2.5 µM: read-out: Residual viability, E.histolytica (2.5 µM); for viability at 25 µM: read-out: Residual viability, E.histolytica (25 µM)
Experimental: Entamoeba histolytica (strain B2-5) was passaged in TY-1 medium (Trypticase peptone BBL, Yeast extract BBL, glucose, NaCl, K2HPO4, KH2PO4, cysteine, ascorbic acid, ammonium iron citrate, adult bovine serum, Diamond tween 80, penicillin G, amikacin (pH:6.8)) and kept in 37°C incubator in completely filled tubes with closed lid.
Viability of E. histolytica was assayed via a luminescence assay based on ATP quantification in the live cells. Briefly, 2.5x10^4 cell/ml were exposed to 25 μM of compounds in 96 well plates (non-transparent, tissue culture treated, flat bottom; SPL Life Sciences) in triplicate for 48h. Plates were incubated in sealed anaerobic bags (Oxoid AGS) together with an Anaerogen compact bag (Thermo Scientific) and anaerobic indicator (Thermo Scientific) at 37°C. Then, Cell titer glo reagent (Promega) was added to the reaction (1:5) according to manufacturers’ instruction. After 15 min of orbital shaking, followed by 10 min incubation at RT, ATP-bioluminescence was quantified at RT using a Synergy H1 plate reader (Synergy H1, BioTek). Metronidazole was included as control drug in all the assays for E. histolytica. Test compounds indicating significant growth reduction in the primary screen were subjected to potency determination. These secondary screens were essentially carried out as detailed above, but with a 9 to 16-point concentration range of the test compounds spanning 0.01–100 μM.

L. major promastigotes = experiment: L. major promastigote viability, resazurin reduction; type: cell-based, Leishmania major; details: Leishmania major; 25 µM, 72 h, vs non-treated cells; read-out: Residual viability, L.major promastigote (25 µM)
Excerpt: (§1) The infectivity of the parasites was boosted by passaging in Balb/c mice and culturing the infected lymph nodes after six weeks. L. infantum (MHOM / BR / 76 / M4192) parasite was passaged in the same media formulation with 0.5% urine.

[1] = system: L. infantum promastigotes; experiment: L. infantum promastigote viability, resazurin reduction; type: cell-based, Leishmania infantum; details: Leishmania infantum, 72 h, vs non-treated cells
Excerpt: as §1

[2] = system: L. major axenic amastigotes; experiment: L. major axenic amastigote viability, resazurin reduction; details: Leishmania major
Experimental: L. major LV561(MHOM/IL/67/LRC-L137 JERICHO II) amastigotes were passaged in Grace insect medium supplemented with NaHCO3, 0.1% amikin and 20% of FCS (pH: 5.4) and kept at 33°C.
Exponential growth phase promastigotes of L. major or L. infantum and axenic amastigotes (L. major) were harvested and seeded in 384 well plates (white, non-transparent, tissue culture treated, flat bottom; Corning) (0.5x10^5 cells per well). Compounds were pre-dispensed into the plate with an Echo 650 acoustic dispenser (Beckman Coulter). After 72h incubation, resazurin was added (1:10 v/v) from a […] stock in PBS, followed by incubation for six hours. Then, fluorescence intensity was measured using a microplate reader (Synergy H1, BioTek) with excitation filter: 550 nm and emission filter: 590 nm. Efficient compounds were selected for the next round of viability assay with 2.5 μM concentrations of the compounds. […] All experiments were performed with AmB as a positive control drug in parallel.
Axenic amastigotes, the relevant form that persists in the infected host, were generated in the lab through established procedures, employing harsh pH (pH 5) and high temperature (33°C) conditions.

[3] = system: intracellular L. infantum amastigotes; experiment: Parasite rescue assay (intramacrophage, J774 infected with L. infantum); type: cell-based, Leishmania infantum; details: Leishmania infantum, J774, rescue assay in J774, 25 µM; read-out: Residual viability, intracellular L. infantum amastigote (25 µM)
Experimental: After 24 h incubation, cells were washed five times with serum free RPMI and exposed to a serial dilution of test compounds, prepared using an acoustic dispenser (Echo 650, Labcyte), in RPMI (2% FCS). After two days, cells were washed thrice, and 20 μl of 0.05% SDS in RPMI was added upon removal of the supernatant. Upon incubation under orbital shaking for 30 seconds, cell lysis was stopped by addition of 180 μl M199 medium supplemented with 10% FCS. […] Then, fluorescence intensity of the samples was measured with a microplate reader (Synergy H1, BioTek) with λEx: 550 nm and λEm: 590 nm. Percent of viability was calculated according to cell only and media controls.
J774A.1 cells (J774) were infected with L. infantum metacyclic promastigotes. […] After controlled lysis of the infected macrophages, the released parasites were quantified using a resazurin based viability assay.

T. brucei brucei BSF = experiment: T. brucei BSF viability, resazurin reduction; type: cell-based, Trypanosoma brucei brucei; details: Trypanosoma brucei, 72 h, BSF, 72 h
Experimental: T. brucei brucei (strain 427 Lister) blood stream form (BSF) parasites were passaged in complete HMI-9 media supplemented with 10% FCS, Pen-Strep (0.1%) and 2-mercaptoethanol (0.014 v/v) and kept in a 37° C CO2 incubator in filter-cap flasks.
(§2) Viability of T. brucei brucei BSF and T. cruzi trypomastigotes was assayed with fluorescence resazurin reduction assay, essentially as described above. […] Next, selected compounds were tested at 2.5 μM concentration, and promising compounds subjected to 18 concentrations dose response analyses. AN3057 and AmB were used as a control drug in T. brucei and T. cruzi, respectively.

T. cruzi trypomastigotes = experiment: T. cruzi viability, resazurin reduction; type: cell-based, Trypanosoma cruzi; details: Trypanosoma cruzi, 72 h, 72 h
Experimental: T. cruzi (Y strain) trypomastigotes were passaged in liver infusion broth media supplemented with tryptose, NaCl, Na2HPO4, KCl, glucose, hemin, Pen-Strep (1%), 10% FCS (pH: 7.2) and kept at 28°C.
as §2

[4] = Cytotoxicity assay J774, resazurin reduction; type: cell-based, murine; details: mouse, J774 macrophage cells, cytotoxicity, 72 h
Experimental: Mammalian cell lines (J774 and HepG2) were passaged in RPMI media supplemented with MEM, Pen-Strep (1%) and 10% FCS. Cultures were kept at 37°C incubator with 5% CO2 in filter-cap flasks.
Murine macrophage cells (J774) and human hepatocyte carcinoma HepG2 cells were seeded at 0.5x10^5 cell/well in 384 well plates in triplicate, exposed to serial dilution of compounds, dispensed using an Echo 650 acoustic dispenser (Labcyte). After incubation for 72 h at 37°C, 5% CO2, cell viability was determined using fluorescence resazurin reduction assay (λEx: 550 nm; λEm: 590 nm).

T. brucei BSF proteome = system: T. brucei BSF proteome; parameters: method as in PMID: 32354742; details: ref PMID: 32354742, cited from earlier work

Cc1ncc([N+](=O)[O-])n1CCO [Metronidazole, reference compound]
viability at 2.5 µM (E. histolytica): 71.6 ± 32.3%
viability at 25 µM (E. histolytica): -7.82 ± 3.48%
EC50 (E. histolytica; 9 to 16-point dose response): 2900 ± 1800 nM

CC[C@@H](C)[C@H](c1nc2ccccc2n1Cc1cn(-c2c(F)c(F)c(F)c(F)c2F)nn1)N1C(=O)c2ccccc2C1=O [PHT-41]
viability at 25 µM (L. major promastigotes): 21.5 ± 1.47%
viability at 2.5 µM ([1]; 2.5 µM, read-out: Residual viability, L. infantum promastigote (2.5 µM)): 54.6 ± 1.29%
viability at 25 µM ([1]; 25 µM, ± SD, triplicate, read-out: Residual viability, L. infantum promastigote (25 µM)): 12.4 ± 1.22%
viability at 2.5 µM ([2]; 72 h, read-out: Residual viability, L.major amastigote (2.5 µM)): 64.8 ± 5.36%
viability at 25 µM ([2]; 72 h, read-out: Residual viability, L.major amastigote (25 µM)): 4.6%
EC50 ([2]; read-out: EC50 L. major axenic amastigote): 3.6 ± 2.1 µM
viability at 25 µM [3]: 81.4 ± 2.86%
viability at 2.5 µM (T. brucei brucei BSF; 2.5 µM, read-out: Residual viability, T.brucei (2.5 µM)): 57.4 ± 11%
viability at 25 µM (T. brucei brucei BSF; 25 µM, read-out: Residual viability, T.brucei (25 µM)): 3.15 ± 3%
viability at 2.5 µM (T. cruzi trypomastigotes; 2.5 µM, read-out: Residual viability, T.cruzi (2.5 µM)): 64.5 ± 2.58%
viability at 25 µM (T. cruzi trypomastigotes; read-out: Residual viability, T.cruzi (25 µM), 25 µM, 72 h): 22.7 ± 0.63%
viability at 2.5 µM (E. histolytica; 2.5 µM): 110 ± 24.2%
viability at 25 µM (E. histolytica; 25 µM): 53.3 ± 1.97%
viability at 72 h, 2.5 µM ([4]; 2.5 µM, read-out: Residual viability, J774 (2.5 µM)): 96.1 ± 3.84%
viability at 72 h, 25 µM ([4]; 25 µM, read-out: Residual viability, J774 (25 µM)): 86.1 ± 5.26%

Cc1ccc(C(=O)Nc2ccc(S(=O)(=O)O)c3cc(S(=O)(=O)O)cc(S(=O)(=O)O)c23)cc1NC(=O)c1cccc(NC(=O)Nc2cccc(C(=O)Nc3cc(C(=O)Nc4ccc(S(=O)(=O)O)c5cc(S(=O)(=O)O)cc(S(=O)(=O)O)c45)ccc3C)c2)c1 [suramin]
suramin ratio (protein abundance) (T. brucei BSF proteome; protein 2-oxoglutarate dehydrogenase E1 component, Tb927.11.1450): 2.73
suramin ratio (protein abundance) (T. brucei BSF proteome; protein 2-oxoglutarate dehydrogenase E1 component, Tb927.11.9980): 3.16
suramin ratio (protein abundance) (T. brucei BSF proteome; protein ACS1, Tb927.7.6180): 0.80
suramin ratio (protein abundance) (T. brucei BSF proteome; protein Aconitase, Tb927.10.14000): 2.76
suramin ratio (protein abundance) (T. brucei BSF proteome; protein CIF1 (TOEFAZ1), Tb927.11.15800): 0.78
suramin ratio (protein abundance) (T. brucei BSF proteome; protein CIF3, Tb927.10.13100): 1.00
suramin ratio (protein abundance) (T. brucei BSF proteome; protein CIF4, Tb927.10.8240): 0.84
suramin ratio (protein abundance) (T. brucei BSF proteome; protein F1 alpha, Tb927.7.7430, Tb927.7.7420): 1.62
suramin ratio (protein abundance) (T. brucei BSF proteome; protein F1 beta, Tb927.3.1380): 1.57
suramin ratio (protein abundance) (T. brucei BSF proteome; protein F1 gamma, Tb927.10.180): 1.62
suramin ratio (protein abundance) (T. brucei BSF proteome; protein F1 p18, Tb927.5.1710): 0.87
suramin ratio (protein abundance) (T. brucei BSF proteome; protein FPRC, Tb927.10.6360): 1.14
suramin ratio (protein abundance) (T. brucei BSF proteome; protein Fo 8, Tb927.4.3450): 1.62
suramin ratio (protein abundance) (T. brucei BSF proteome; protein Fo ATBTB1, Tb927.10.520): 1.20
suramin ratio (protein abundance) (T. brucei BSF proteome; protein Fo ATBTB3, Tb927.11.6250): 1.77
suramin ratio (protein abundance) (T. brucei BSF proteome; protein Fo ATBTB4, Tb927.10.9830): 0.88
suramin ratio (protein abundance) (T. brucei BSF proteome; protein Fo ATBTB12, Tb927.5.3090): 1.92
suramin ratio (protein abundance) (T. brucei BSF proteome; protein Fo OSCP, Tb927.10.8030): 1.11
suramin ratio (protein abundance) (T. brucei BSF proteome; protein Fo d, Tb927.5.2930): 1.32
suramin ratio (protein abundance) (T. brucei BSF proteome; protein Fo e, Tb927.11.600): 1.21
suramin ratio (protein abundance) (T. brucei BSF proteome; protein Fo f, Tb927.3.1690): 1.06
suramin ratio (protein abundance) (T. brucei BSF proteome; protein Fo i/j, Tb927.3.2880): 1.67
suramin ratio (protein abundance) (T. brucei BSF proteome; protein Fo k, Tb927.7.840): 1.07
suramin ratio (protein abundance) (T. brucei BSF proteome; protein Glutamate dehydrogenase, Tb927.9.5900): 3.30
suramin ratio (protein abundance) (T. brucei BSF proteome; protein PIP39, Tb927.9.6090): 2.83
suramin ratio (protein abundance) (T. brucei BSF proteome; protein PPDK, Tb927.11.6280): 2.94
suramin ratio (protein abundance) (T. brucei BSF proteome; protein Proline dehydrogenase, Tb927.7.210): 4.55
suramin ratio (protein abundance) (T. brucei BSF proteome; protein SAXO, Tb927.8.6240): 0.98
suramin ratio (protein abundance) (T. brucei BSF proteome; protein Tb927.1.4280): 0.91
suramin ratio (protein abundance) (T. brucei BSF proteome; protein isocitrate dehydrogenase, Tb927.8.3690): 1.96
suramin ratio (protein abundance) (T. brucei BSF proteome; protein mitochondrial malate dehydrogenase, Tb927.10.2560): 1.99
suramin ratio (protein abundance) (T. brucei BSF proteome; protein succinyl-CoA ligase beta-chain, Tb927.10.7410): 1.97
suramin ratio (protein abundance) (T. brucei BSF proteome; protein succinyl-CoA synthetase alpha subunit, Tb927.3.2230): 1.94
